Laboratory results: ChEMBL document CHEMBL3797093, “Optimization of amide-based EP3 receptor antagonists” (Bioorg Med Chem Lett, 2016)

Tests used:
[1] = Apparent intrinsic clearance in human liver microsomes in presence of NADPH; assay type: ADME; settings: read-out: CLH(app)
Hepatocyte [2] = experiment: Drug level in human hepatocytes treated with GSK; assay type: ADME, cell-based
[3] = Intrinsic clearance in human hepatocytes; assay type: ADME, cell-based, Hepatocyte; settings: read-out: CLH
Hepatocyte [4] = experiment: Drug metabolism in human hepatocytes assessed as N-(5-(2,6-dichlorophenyl)-1,3,4-thiadiazol-2-yl)-4-(2-hydroxyethyl)-3,4-dihydro-2H-benzo[b][1,4]oxazine-6-carboxamide formation; assay type: ADME, cell-based
Hepatocyte [5] = experiment: Drug metabolism in human hepatocytes assessed as N-(5-(2,6-dichlorophenyl)-1,3,4-thiadiazol-2-yl)-3-(ethylamino)-4-hydroxybenzamide formation; assay type: ADME, cell-based
Hepatocyte [6] = experiment: Drug metabolism in human hepatocytes assessed as 4-ethyl-3,4-dihydro-2H-benzo[b][1,4]oxazine-6-carboxylic acid formation; assay type: ADME, cell-based

For `Cn1ncc2ncc(C(=O)Nc3nnc(C4CC4)s3)cc21`, the microsomal CLint [1] was < 8 µL/min/mg.

For `CCn1ncc2ccc(C(=O)Nc3nnc(C4CC4)s3)cc21`, the microsomal CLint [1] was < 8 µL/min/mg.

With `CCn1ncc2c(F)cc(C(=O)Nc3nnc(C4CC4)s3)cc21` the microsomal CLint [1] was 8.6 µL/min/mg.

For `CCn1ncc2c(F)cc(C(=O)Nc3nnc(C4(C)CCN(C(C)=O)CC4)s3)cc21`, the microsomal CLint [1] was < 8.6 µL/min/mg.

For `CCn1ncc2c(Cl)cc(C(=O)Nc3nnc(C4CC4)s3)cc21`, the microsomal CLint [1] was 10.9 µL/min/mg.

With `O=C(Nc1nnc(-c2c(Cl)cccc2Cl)s1)c1ccc2c(c1)N(CCO)CCO2` the Drug metabolism (Hepatocyte [2]) was “metabolite_detected”.

For `Cn1ncc2ccc(C(=O)Nc3nnc(C4CC4)s3)cc21`, the microsomal CLint [1] was < 8 µL/min/mg.

In the case of `CCNc1cc(C(=O)Nc2nnc(-c3c(Cl)cccc3Cl)s2)ccc1O`, the Drug metabolism (Hepatocyte [2]) is reported as “metabolite_detected”.

With `CCN1CCOc2ccc(C(=O)Nc3nnc(C4CC4)s3)cc21` the microsomal CLint [1] was 25 µL/min/mg.

In the case of `CCn1ncc2c(F)cc(C(=O)Nc3nnc(C4(C)CN(C(C)=O)C4)s3)cc21`, the microsomal CLint [1] is reported as < 8 µL/min/mg.

For `CCn1ncc2c(F)cc(C(=O)Nc3nnc(C4(C)CCN(C(=O)CO)CC4)s3)cc21`, the microsomal CLint [1] was < 8 µL/min/mg.

Compound `CC(C)n1ncc2ccc(C(=O)Nc3nnc(C4CC4)s3)cc21` has a microsomal CLint [1] of 13.2 µL/min/mg.

Compound `Cn1ncc2cc(C(=O)Nc3nnc(C4CC4)s3)ccc21` has a microsomal CLint [1] of 21.3 µL/min/mg.

With `CCn1ncc2c(F)cc(C(=O)Nc3nnc(C4(C)CCN(C(=O)C(C)(C)O)CC4)s3)cc21` the microsomal CLint [1] was 20 µL/min/mg.

With `CCN1CCOc2ccc(C(=O)O)cc21` the Drug metabolism (Hepatocyte [2]) was “metabolite_detected”.

For `CCN1CCOc2ccc(C(=O)Nc3nnc(-c4c(Cl)cccc4Cl)s3)cc21`, the CLint scaled [1] was 39 mL/min/kg, the CLint scaled [3] was 59 mL/min/kg and the Drug metabolism (Hepatocyte [4]) was “metabolite_detected”. For the same compound, the Drug metabolism (Hepatocyte [5]) was “metabolite_detected” and the Drug metabolism (Hepatocyte [6]) was “metabolite_detected”.

For `CCn1ncc2c(F)cc(C(=O)Nc3nnc(C4(C)CCN(C(C)=O)C4)s3)cc21` (racemic), the microsomal CLint [1] was < 8 µL/min/mg.

In the case of `CCn1ncc2c(F)cc(C(=O)Nc3nnc(C4(C)CCN(C(=O)C(C)O)CC4)s3)cc21` (racemic), the microsomal CLint [1] is reported as < 8 µL/min/mg.
